Experimental data reported in ChEMBL document CHEMBL1128768, “Structure-activity relationships of tricyclic quinoxalinediones as potent antagonists for the glycine binding site of the NMDA receptor 1” (Bioorg Med Chem Lett, 1995).

What follows are compounds tested against Glutamate receptor ionotropic, NMDA 1 (Rattus norvegicus, UniProt P35439) (assay: Affinity measured by using [3H]5,7-dichlorokynurenic acid (DCKA) for the glycine binding site of NMDA receptor).

Ki | SMILES
17.1 nM | C[C@H]1C[C@@H](CC(=O)Nc2ccccc2)n2c(=O)c(=O)[nH]c3cc(Br)cc1c32
451 nM | C[C@@]1(CC(=O)O)CCc2cc(Br)cc3[nH]c(=O)c(=O)n1c23
42 nM | C[C@H]1C[C@@H](CC(=O)O)n2c(=O)c(=O)[nH]c3cc(Br)cc1c32
1.4 nM | CC[C@H]1Cc2cc(Br)cc3[nH]c(=O)c(=O)n(c23)[C@@H]1CC(=O)O
38.3 nM | C[C@@H]1C[C@@H](CC(=O)O)n2c(=O)c(=O)[nH]c3cc(Br)cc1c32
8.4 nM | CC(C)[C@H]1Cc2cc(Br)cc3[nH]c(=O)c(=O)n(c23)[C@@H]1CC(=O)O
3 nM | C[C@H]1Cc2cc(Br)cc3[nH]c(=O)c(=O)n(c23)[C@@H]1CC(=O)Nc1ccccc1
760 nM | C[C@@]1(CC(=O)Nc2ccccc2)CCc2cc(Br)cc3[nH]c(=O)c(=O)n1c23
29.6 nM | C[C@@H]1Cc2cc(Br)cc3[nH]c(=O)c(=O)n(c23)[C@@H]1CC(=O)O
9.9 nM | O=C(O)C[C@@H]1CCc2cc(Br)cc3[nH]c(=O)c(=O)n1c23
2.6 nM | O=C(C[C@@H]1CCc2cc(Br)cc3[nH]c(=O)c(=O)n1c23)Nc1ccccc1
3.8 nM | CC[C@H]1Cc2cc(Br)cc3[nH]c(=O)c(=O)n(c23)[C@@H]1CC(=O)Nc1ccccc1
21 nM | C[C@@H]1Cc2cc(Br)cc3[nH]c(=O)c(=O)n(c23)[C@@H]1CC(=O)Nc1ccccc1
3.3 nM | C[C@H]1Cc2cc(Br)cc3[nH]c(=O)c(=O)n(c23)[C@@H]1CC(=O)O
7.4 nM | C[C@@H]1C[C@@H](CC(=O)Nc2ccccc2)n2c(=O)c(=O)[nH]c3cc(Br)cc1c32
241 nM | CC(C(=O)O)[C@@H]1CCc2cc(Br)cc3[nH]c(=O)c(=O)n1c23 (stereo in doubt; 23a)
665 nM | CC(C(=O)Nc1ccccc1)[C@@H]1CCc2cc(Br)cc3[nH]c(=O)c(=O)n1c23 (stereo in doubt; 23b)
300 nM | CC(C(=O)O)[C@@H]1CCc2cc(Br)cc3[nH]c(=O)c(=O)n1c23 (stereo in doubt; 24a)
590 nM | CC(C(=O)Nc1ccccc1)[C@@H]1CCc2cc(Br)cc3[nH]c(=O)c(=O)n1c23 (stereo in doubt; 24b)
